Laboratory results taken from patent US20210292265A1, “CHALCONES AND DERIVATIVES FOR USE IN MEDICAMENTS AND NUTRACEUTICALS” (HLXTH B.V., priority 2018, published 2021).
One block for each molecule: values may come before it.

What was measured:
[1] = tested on: inflammasome induced IL-1β production; assay: IL-1β secretion (ELISA) in LPS/ATP stimulated, PMA differentiated THP-1 cells; assay type: cell-based; conditions: for IC50: Homo sapiens, LPS (2 ng/ml, 4h) plus ATP (5 mM, 5 min), 1 hour pre-treatment, read-out: IC50 of inhibition of IL-1β secretion
Protocol: (§1) Evaluation of the effect of test compounds on inflammasome induced IL-1β or IL-18 generation and mTOR or caspase-1 activity was performed using PMA-differentiated THP-1 cells stimulated with LPS (2 ng/ml, 4h (LPS (sigma, cat #L3012)) plus ATP (5 mM, 5 min. (Sigma, cat #A1852)). PMA-differentiated THP-1 cells untreated with LPS/ATP were used as control. PMA (phorbol 12-myristate 13-acetate) stimulation was done by adding 150 nM PMA to the cell culture for 24 hours. followed by 24 hours of incubation in culture medium and removal of non-adherent cells.
(§2) The supernatant was collected immediately after experimental procedures for measurement of IL-1β ELISA (R&D Systems, cat #DY201) or IL-18 ELISA (R&D Systems, cat #7620) levels.
(§3) PMA-differentiated THP-1 cells, 1.5×10^5 cells/well, 96-well format
(§4) 1. Pre-treatment for 1 hour with experimental compounds. 2. LPS stimulation (2 ng/mL) for 4h of all conditions except unstimulated (LPS/ATP unstimulated) cells 3. ATP (5 mM) stimulation for 5 minutes of all conditions except unstimulated (LPS/ATP unstimulated) cells 4. Material collection: Supernatant and cell lysates (snap frozen, stored at −80° C.)

MCAO rats = conditions: pretreatment once a day for 7 days, 2 h MCAO, 22 h reperfusion; cited from earlier work
mTOR = target: T1, mTOR (Homo sapiens, UniProt P42345); assay: mTOR activity by phospho p70 S6K (Thr389) ELISA in PMA differentiated THP-1 cells; assay type: cell-based; conditions: LPS/ATP stimulated and PMA differentiated THP-1 cells; read-out: IC50 of mTOR inhibition (phospho p70 S6K)
T1 construct: PMA-differentiated THP-1 cells, 1.5×10^5 cells/well, 96-well format; endogenous in cells; host or cells: PMA-differentiated THP-1 cells
Protocol: as §1
(§5) The cell lysates were collected accordingly the manufacturer's instructions for analysis of phospho p70 S6K (Thr389) (eBioscience, cat #85-86052) levels by ELISA, to determine the mTOR activity or to determine caspase-1 (R&D Systems cat #AF6215) levels by Western blot. As secondary antibody for the Western blot a HRP-conjugated anti-IG antibody (R&D Systems cat #HAF017) was used and immunoreactive bands were visualized by the Enhanced Chemiluminescence method (Thermo Scientific, Rockford, Ill.). All assays were performed accordingly to the respective manufacturers instructions.
as §3
1. Pre-treatment for 1 hour with experimental compounds. 2. LPS stimulation (2 ng/mL) for 4h of all conditions except unstimulated (LPS/ATP unstimulated) cells 3. […]

[2] = tested on: myocardial ischemia reperfusion injury (MI/RI) rats; conditions: I/R rats, 2.5, 5 and 10 mg/kg, 30 min occlusion, 2 h reperfusion; cited from earlier work
[3] = tested on: inflammasome induced caspase-1 production; assay: Caspase-1 levels by Western blot in LPS/ATP stimulated, PMA differentiated THP-1 cells; assay type: cell-based
Protocol: as §1, §5
1. Pre-treatment for 1 hour with experimental compounds. 2. […]
LPS/ATP stimulated, PMA differentiated THP-1 cells were incubated with a compound of formula I and caspase-I formation was analyzed and compared to a control without the compound.

[4] = tested on: inflammasome induced IL-18 production; assay: IL-18 secretion (ELISA) in LPS/ATP stimulated, PMA differentiated THP-1 cells; assay type: cell-based; conditions: dose dependent
Protocol: as §1, §2, §3, §4

[5] = tested on: 1K/DOCA/salt-treated mice; conditions: cited from earlier work

Compound: CO[C@H]1C[C@@H]2CC[C@@H](C)[C@@](O)(O2)C(=O)C(=O)N2CCCC[C@H]2C(=O)O[C@H]([C@H](C)C[C@@H]2CC[C@@H](O)[C@H](OC)C2)CC(=O)[C@H](C)/C=C(\C)[C@@H](O)[C@@H](OC)C(=O)[C@H](C)C[C@H](C)/C=C/C=C/C=C/1C [Rapamycin]
effect on production of IL-1β ([1]; LPS/ATP stimulated, Rapamycin 25, 50 and 100 nM): no effect

Compound: O=C(/C=C/c1ccccc1O)c1ccc(O)cc1O [2,2′,4′-trihydroxychalcone]
effect on caspase-1 production [3]: inhibits caspase-1 production
IC50 (mTOR): 98.8 µM
IC50 [1]: 6.1 µM
effect on secretion of IL-18 [4]: inhibits the secretion of IL-18

Compound: CC(C)(O)c1coc(S(=O)(=O)NC(=O)Nc2c3c(cc4c2CCC4)CCC3)c1 [MCC950]
effect on hypertension [5]: reversed hypertension

Second part, led by results:

IC50 (mTOR): 174 µM
IC50 [1]: 11.9 µM
Compound: O=C(/C=C/c1ccc(O)cc1)c1ccc(O)cc1O [Isoliquiritigenin]
cerebral infarct volume and edema (MCAO rats): significantly reduced

IC50 [1]: 87.3 µM
Compound: Oc1ccc(/C=C/c2cc(O)cc(O)c2)cc1 [Resveratrol, resveratrol]
infarct volume and myocardial fibrosis [2]: significantly reduced
